Tested on: Aβ42 levels in the extracellular medium
Assay: FRET (HTRF) assay, Aβ42 level of the extracellular medium of SH-SY5Y-APP cells
Type: cell-based
Conditions: Homo sapiens, concentration at which reduction of Aβ42 level was half of the maximum reduction, read-out: Ab42 Potency

Compound | EC50 [nM]
COc1cc(C)c(Nc2nc(-c3ccc(-n4cnc(C)c4)nc3)cs2)cc1C(C)C [Compound 296] | < 200
COc1cc(C)c(Nc2nc(-c3ccc(-n4cnc(C)c4)cc3)c(C)s2)cc1C(C)C [Compound 297] | < 200
Cc1ccc(CO)cc1Nc1nc(-c2ccc(-n3ccnc3)cc2)cs1 [Compound 298] | 200 to 1000
Cc1cn(-c2ccc(-c3csc(Nc4cc(CO)ccc4C)n3)cc2)cn1 [Compound 299] | 200 to 1000
Cc1cn(-c2ccc(-c3csc(Nc4cc(CO)ccc4C)n3)cn2)cn1 [Compound 300] | 200 to 1000
Cc1ccc(CO)cc1Nc1nc(-c2ccc(-n3cnc(Br)c3)cc2)cs1 [Compound 301] | 200 to 1000
Cc1ccc(C)c(Nc2nc(-c3ccc(-n4ccnc4)cc3)cs2)c1 [Compound 302] | 200 to 1000
Cc1ccc(C)c(Nc2nc(-c3ccc(-n4cnc(C)c4)cc3)cs2)c1 [Compound 303] | < 200
Cc1ccc(N(C)CC2CC2)cc1Nc1nc(-c2ccc(-n3ccnc3)cc2)cs1 [Compound 304] | < 200
Cc1cn(-c2ccc(-c3csc(Nc4cc(N(C)CC5CC5)ccc4C)n3)cc2)cn1 [Compound 305] | < 200
Cc1cn(-c2ccc(-c3csc(Nc4cc(N(C)CC5CC5)ccc4C)n3)cn2)cn1 [Compound 306] | < 200
CCN(CC)c1ccc(C)c(Nc2nc(-c3ccc(-n4cc(C)cn4)cc3)cs2)c1 [Compound 307] | 1100 to 5000
COc1cc(C)c(Nc2nc(-c3ccc(-n4cc(C)cn4)cc3)cs2)cc1C(C)C [Compound 308] | 200 to 1000
CCN(CC)c1ccc(C)c(Nc2nc(-c3ccc(-n4cnc(C)c4)c(F)c3)cs2)c1 [Compound 309] | < 200
COc1cc(C)c(Nc2nc(-c3ccc(-n4cnc(C)c4)c(F)c3)cs2)cc1C(C)C [Compound 310] | < 200
CCN(CC)c1ccc(C)c(Nc2nc(-c3ccc(-c4ccoc4)cc3)cs2)c1 [Compound 311] | 1100 to 5000
CCN(CC)c1ccc(Nc2nc(-c3ccc(-c4ncc(Br)s4)cc3)cs2)c(C)c1 [Compound 312] | 200 to 1000
CCN(CC)c1ccc(F)c(Nc2nc(-c3ccc(-n4cnc(C)c4)cc3)cs2)c1 [Compound 313] | < 200
CCN(CC)c1ccc(F)c(Nc2nc(-c3ccc(-n4cnc(C)c4)nc3)cs2)c1 [Compound 314] | < 200

Compound | EC50 [nM]
Cc1cn(-c2ccc(-c3csc(Nc4cc(N(C)CC5CC5)ccc4C)n3)cc2F)cn1 [Compound 315] | < 200
Cc1ccc(C)c(Nc2nc(-c3ccc(-n4cnc(Br)c4)cc3)cs2)c1 [Compound 316] | < 200
CCCCN(CC)c1ccc(C)c(Nc2nc(-c3ccc(-n4cnc(C)c4)nc3)cs2)c1 [Compound 317] | 200 to 1000
CCOc1cc(C)c(Nc2nc(-c3ccc(-n4ccnc4)nc3)cs2)cc1C [Compound 318] | < 200
COc1cc(C)c(Nc2nc(-c3ccc(-n4ccnc4)nc3)cs2)cc1C(C)C [Compound 319] | < 200
CCN(CC)c1cc(Nc2nc(-c3ccc(-n4ccnc4)nc3)cs2)c(C)cc1C [Compound 320] | < 200
COc1cc(C)c(Nc2nc(-c3ccc(N4CCN(C)CC4)cc3)cs2)cc1C(C)C [Compound 321] | 200 to 1000
CCOc1cc(C)c(Nc2nc(-c3ccc(N4CCN(C)CC4)cc3)cs2)cc1C [Compound 322] | 1100 to 5000
Cc1ccc(-n2cccc2)cc1Nc1nc(-c2ccc(N3CCN(C)CC3)cc2)cs1 [Compound 323] | 1100 to 5000
Cc1ccc(C(C)C)cc1Nc1nc(-c2ccc(-n3ccnc3)cc2)cs1 [Compound 324] | < 200
Cc1ccc(C(C)C)cc1Nc1nc(-c2ccc(-n3ccnc3)nc2)cs1 [Compound 325] | 1100 to 5000
Cc1cn(-c2ccc(-c3csc(Nc4cc(C(C)C)ccc4C)n3)cc2)cn1 [Compound 326] | < 200
Cc1cn(-c2ccc(-c3csc(Nc4cc(C(C)C)ccc4C)n3)cn2)cn1 [Compound 327] | < 200
CN1CCN(c2ccc(-c3csc(Nc4ccc5c(c4)OCO5)n3)cn2)CC1 [Compound 328] | 200 to 1000
CCN(CC)c1ccc(Nc2nc(-c3ccc(N4CCN(C)CC4)nc3)cs2)c(C)c1 [Compound 329] | 10100 to 30000
CN1CCN(c2ccc(-c3csc(Nc4ccc(Cl)c(Cl)c4)n3)cn2)CC1 [Compound 330] | 1100 to 5000
Cc1cn(-c2ccc(-c3csc(Nc4cc5cn[nH]c5cc4C)n3)cn2)cn1 [Compound 331] | 5100 to 10000
CCN(CC)c1cc(Nc2nc(-c3ccc(N4CCN(C)CC4)nc3)cs2)c(C)cc1C [Compound 332] | 1100 to 5000
CN1CCN(c2ccc(-c3csc(Nc4cccc5ccccc45)n3)cn2)CC1 [Compound 333] | 200 to 1000

Compound | EC50 [nM]
CCN(C)c1cc(Nc2nc(-c3ccc(-n4ccnc4)cc3)cs2)c(C)cc1C [Compound 334] | < 200
CCN(C)c1cc(Nc2nc(-c3ccc(-n4cnc(C)c4)cc3)cs2)c(C)cc1C [Compound 335] | < 200
CCN(C)c1cc(Nc2nc(-c3ccc(-n4cnc(C)c4)nc3)cs2)c(C)cc1C [Compound 336] | < 200
CCCN(CC)c1ccc(C)c(Nc2nc(-c3ccc(-n4cnc(C)c4)cc3)cs2)c1 [Compound 337] | < 200
COc1ccc(-c2coc(Nc3ccccc3)n2)cc1 [Compound 338] | 10100 to 30000
COc1ccc(Nc2nc(-c3ccc(Cl)cc3)co2)cc1 [Compound 339] | 1100 to 5000
COc1ccc(Nc2nc(-c3ccc(-n4ccnc4)cc3)co2)cc1 [Compound 340] | 1100 to 5000
CCN(CC)c1ccc(C)c(Nc2nc(-c3cnc(-n4cnc(C)c4)nc3)cs2)c1 [Compound 341] | < 200
CCN(CC)c1ccc(Nc2nc(-c3cnc(-n4cnc(C)c4)nc3)cs2)c(C)c1 [Compound 342] | < 200
CCN(CC)c1cc(Nc2nc(-c3cnc(-n4cnc(C)c4)nc3)cs2)c(C)cc1C [Compound 343] | < 200
Cc1ccc(Nc2nc(-c3ccc(Br)cc3)co2)c(C)c1 [Compound 344] | 1100 to 5000
Cc1ccc(Nc2nc(-c3ccc(-n4ccnc4)cc3)co2)c(C)c1 [Compound 345] | 5100 to 10000
CCN(CC)c1ccc(C)c(Nc2nc(-c3ccc(-n4cc(C)nn4)cc3)cs2)c1 [Compound 346] | < 200
CCN(C)c1ccc(C)c(Nc2nc(-c3ccc(-n4cnc(C)c4)cc3)cs2)c1 [Compound 347] | < 200
CCCN(C)c1ccc(C)c(Nc2nc(-c3ccc(-n4cnc(C)c4)cc3)cs2)c1 [Compound 348] | < 200
Cc1cn(-c2ncc(-c3csc(Nc4cc(C)c(C)cc4C)n3)cn2)cn1 [Compound 349] | < 200
CCN(CC1CC1)c1cc(Nc2nc(-c3ccc(-n4cnc(C)c4)cc3)cs2)c(C)cc1C [Compound 350] | < 200
COc1ccc(C)c(Nc2nc(-c3ccc(-n4ccnc4)cc3)cs2)c1 [Compound 351] | < 200
COc1ccc(C)c(Nc2nc(-c3ccc(-n4cnc(C)c4)cc3)cs2)c1 [Compound 352] | < 200

Target: BACE Enzyme (Homo sapiens, UniProt P56817)
Assay: BACE Enzyme Potency (Table 12)
Type: biochemical
Conditions: not given

Chain of BACE Enzyme (P56817 46-501, species assumed): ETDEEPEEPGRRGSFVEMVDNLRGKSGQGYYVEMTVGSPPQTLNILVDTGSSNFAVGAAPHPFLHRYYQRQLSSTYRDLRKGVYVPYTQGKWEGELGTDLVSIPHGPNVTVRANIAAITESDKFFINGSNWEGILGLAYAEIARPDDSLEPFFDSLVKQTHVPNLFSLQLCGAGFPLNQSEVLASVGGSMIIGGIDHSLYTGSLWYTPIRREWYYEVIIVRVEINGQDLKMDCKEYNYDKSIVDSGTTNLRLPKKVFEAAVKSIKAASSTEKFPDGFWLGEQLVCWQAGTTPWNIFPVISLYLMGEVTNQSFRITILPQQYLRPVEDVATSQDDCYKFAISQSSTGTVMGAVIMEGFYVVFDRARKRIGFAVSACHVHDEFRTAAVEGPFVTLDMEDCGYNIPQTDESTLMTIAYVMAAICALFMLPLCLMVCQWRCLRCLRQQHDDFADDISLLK

Compound | IC50 [nM]
COc1ccc(-c2csc(Nc3ccc(N(C)C)cc3)n2)c(OC)c1 [Compound 355] | 1100 to 5000

Same assay, conditions: Table 12; class symbols; read-out: BACE Enzyme Potency

Compound | IC50 [nM]
COc1ccc(-c2csc(Nc3ccc(OC)c(OC)c3)n2)c(OC)c1 [Compound 353] | 200 to 1000
COc1cc(Nc2nc(-c3ccc(F)cc3)cs2)cc(OC)c1OC [Compound 354] | 200 to 1000
COc1cc(Nc2nc(-c3ccc(N4CCN(C)CC4)cc3)cs2)cc(OC)c1OC [Compound 356] | 200 to 1000
CN1CCN(c2ccc(-c3csc(Nc4ccc5c(c4)OCO5)n3)cc2)CC1 [Compound 357] | 200 to 1000
CN1CCN(c2ccc(-c3csc(Nc4ccc(N(C)C)cc4)n3)cc2)CC1 [Compound 358] | 200 to 1000
CN1CCN(c2ccc(-c3csc(Nc4ccc5ccccc5c4)n3)cc2)CC1 [Compound 359] | 200 to 1000
CN1CCN(c2ccc(-c3csc(Nc4cccc5cccnc45)n3)cc2)CC1 [Compound 360] | < 200
Brc1ccc(Nc2nc(-c3ccc(N4CCCC4)cc3)cs2)cc1 [Compound 361] | 200 to 1000
COc1ccc(-c2csc(Nc3ccc(Br)cc3)n2)c(OC)c1 [Compound 362] | 200 to 1000
CCc1ccc(Nc2nc(-c3ccc(N4CCCC4)cc3)cs2)cc1 [Compound 363] | 200 to 1000
CN1CCN(c2ccc(-c3csc(Nc4ccc5c(c4)OCCO5)n3)cc2)CC1 [Compound 364] | < 200
COc1cccc(CNc2nc(-c3ccc(N4CCN(C)CC4)cc3)cs2)c1 [Compound 365] | 5100 to 10000
CN1CCN(c2ccc(-c3csc(Nc4ccc(Cl)c(Cl)c4)n3)cc2)CC1 [Compound 366] | < 200
CN1CCN(c2ccc(-c3csc(Nc4ccc5c(cnn5C)c4)n3)cc2)CC1 [Compound 367] | 1100 to 5000
CN1CCN(c2ccc(-c3csc(Nc4ccc5[nH]ncc5c4)n3)cc2)CC1 [Compound 368] | 1100 to 5000
CN1CCN(c2ccc(-c3csc(Nc4ccc(Oc5ccccc5)cc4)n3)cc2)CC1 [Compound 369] | < 200
c1cn(-c2ccc(-c3csc(Nc4ccc5[nH]ccc5c4)n3)cc2)cn1 [Compound 370] | 200 to 1000
CSc1cccc(Nc2nc(-c3ccc(-n4ccnc4)cc3)cs2)c1 [Compound 371] | 200 to 1000
CSc1cccc(Nc2nc(-c3ccc(N4CCN(C)CC4)cc3)cs2)c1 [Compound 372] | 200 to 1000
CC(C)N(c1ccccc1)c1ccc(Nc2nc(-c3ccc(-n4ccnc4)cc3)cs2)cc1 [Compound 373] | 200 to 1000
COc1ccc(-c2csc(Nc3ccc4[nH]cnc4c3)n2)c(OC)c1 [Compound 374] | 200 to 1000
CCN1CCN(c2ccc(-c3csc(Nc4ccc5c(c4)OCO5)n3)cc2)CC1 [Compound 375] | 1100 to 5000
CN1CCN(c2ccc(-c3csc(Nc4cccc(Cl)c4)n3)cc2)CC1 [Compound 376] | 200 to 1000
c1cc(Nc2nc(-c3ccc4c(c3)OCO4)cs2)c2cn[nH]c2c1 [Compound 377] | 200 to 1000
CN1CCN(c2ccc(-c3csc(Nc4ccc(Cl)cc4)n3)cc2)CC1 [Compound 378] | 200 to 1000
CSc1cccc(Nc2nc(-c3ccc(N4CCCC4)cc3)cs2)c1 [Compound 379] | 200 to 1000
CCN(CC)c1ccc(Nc2nc(-c3ccc(-n4cnc(C)c4)cc3)cs2)c(C)c1 [Compound 380] | 1100 to 5000

Source: US8017629B2, “Compounds and uses thereof in modulating amyloid β” (Neurogenetic Pharmaceuticals, Inc., priority 2003, dated 2011)
